Measurements from patent publication US20260285850A1, “SUBSTITUTED OXAZOLIDINONES AND IMIDAZOLINONES AS HERBICIDES” (FMC CORPORATION, priority 2023, published 2026).

Tests used:
Format in all cases: in vivo
[1] = tested on: oat, wild (wild oat, Avena fatua); test: Test A preemergence soil spray, visual injury rating 0-100; conditions: 10 days, 0 = no effect, 100 = complete control
Method in brief: (§1)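 Visual injury, scored 0-100 (100 = complete control) against untreated plants, 10 days after greenhouse treatment. Test chemicals in surfactant-containing non-phytotoxic solvent were applied in loam soil and sand, as a preemergence soil spray on seeds or postemergence to plants at the one- to two-leaf stage.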

[2] = tested on: blackgrass (Alopecurus myosuroides); test: as above; conditions: 10 days, 0 = no effect, 100 = complete control
Method in brief: as §1

[3] = tested on: palmer (palmer amaranth, palmer pigweed, Amaranthus palmeri); test: as above; conditions: 10 days, 0 = no effect, 100 = complete control
Method in brief: as §1

[4] = tested on: barnyardgrass (Echinochloa crus-galli); test: as above; conditions: 10 days, 0 = no effect, 100 = complete control
Method in brief: as §1

corn (Zea mays) [5] = test: as above; conditions: 10 days, 0 = no effect, 100 = complete control
Method in brief: as §1

[6] = tested on: green foxtail (Setaria viridis); test: as above; conditions: 10 days, 0 = no effect, 100 = complete control
Method in brief: as §1

kochia (Bassia scoparia) [7] = test: as above; conditions: 10 days, 0 = no effect, 100 = complete control
Method in brief: as §1

soybean (Glycine max) [8] = test: as above; conditions: 10 days, 0 = no effect, 100 = complete control
Method in brief: as §1

[9] = tested on: wheat (Triticum aestivum); test: as above; conditions: 10 days, 0 = no effect, 100 = complete control
Method in brief: as §1

[10] = tested on: ragweed (common ragweed, Ambrosia artemisiifolia); test: as above; conditions: 10 days, 0 = no effect, 100 = complete control
Method in brief: as §1

[11] = tested on: ryegrass, Italian (italian ryegrass, Lolium multiflorum); test: as above; conditions: 10 days, 0 = no effect, 100 = complete control
Method in brief: as §1

[12] = tested on: ducksalad (Heteranthera limosa); test: Test B flooded paddy test, visual plant response rating 0-100; conditions: 250 g ai/ha, Flood, applied to paddy water, evaluated after 13 days
Method in brief: (§2)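 Visual evaluation after 13 days. Water-applied treatment, 3 cm flood depth held constant, plants at 2-leaf stage at treatment.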

rice (Oryza sativa) = test: as above; conditions: 250 g ai/ha, Flood, applied to paddy water, evaluated after 13 days
Method in brief: as §2

[13] = tested on: sedge, umbrella (small-flower umbrella sedge, Cyperus difformis); test: as above; conditions: 250 g ai/ha, Flood, applied to paddy water, evaluated after 13 days
Method in brief: as §2

[14] = tested on: barnyardgrass (Echinochloa crusgalli); test: as above; conditions: 250 g ai/ha, Flood, applied to paddy water, evaluated after 13 days
Method in brief: as §2

[15] = tested on: galium (catchweed bedstraw, Galium aparine); test: Test A postemergence application, visual injury rating 0-100; conditions: 10 days
Method in brief: as §1

[16] = tested on: oat, wild (wild oat, Avena fatua); test: as above; conditions: 10 days
Method in brief: as §1

[17] = tested on: blackgrass (Alopecurus myosuroides); test: as above; conditions: 10 days
Method in brief: as §1

[18] = tested on: palmer (palmer amaranth, palmer pigweed, Amaranthus palmeri); test: as above; conditions: 10 days
Method in brief: as §1

[19] = tested on: horseweed (Erigeron canadensis); test: as above; conditions: 10 days
Method in brief: as §1

[20] = tested on: barnyardgrass (Echinochloa crus-galli); test: as above; conditions: 10 days
Method in brief: as §1

corn (Zea mays) [21] = test: as above; conditions: 10 days
Method in brief: as §1

[22] = tested on: green foxtail (Setaria viridis); test: as above; conditions: 10 days
Method in brief: as §1

kochia (Bassia scoparia) [23] = test: as above; conditions: 10 days
Method in brief: as §1

soybean (Glycine max) [24] = test: as above; conditions: 10 days
Method in brief: as §1

[25] = tested on: wheat (Triticum aestivum); test: as above; conditions: 10 days
Method in brief: as §1

[26] = tested on: ragweed (common ragweed, Ambrosia artemisiifolia); test: as above; conditions: 10 days
Method in brief: as §1

[27] = tested on: ryegrass, Italian (italian ryegrass, Lolium multiflorum); test: as above; conditions: 10 days
Method in brief: as §1

[28] = 31 g ai/ha, postemergence, 0 = no effect, 100 = complete control
[29] = Postemergence, 125 g ai/ha, 0 is no effect, 100 is complete control

## CC1(C(=O)NC2C=CC(C(=O)OCc3ccc(F)cc3)C2)CN(c2cc(F)cc(F)c2)C(=O)O1 (stereo not shown) [Compound 54]
[1]; 31 g ai/ha
  Oat, Wild plant response rating (0-100): 0
[1]; 125 g ai/ha
  Oat, Wild plant response rating (0 to 100 scale): 90
[2]; 31 g ai/ha
  Blackgrass plant response rating (0-100): 20
[2]; 125 g ai/ha
  Blackgrass plant response rating (0 to 100 scale): 60
[3]; 31 g ai/ha
  Amaranth, Palmer plant response rating (0-100): 10
[3]; 125 g ai/ha
  Amaranth, Palmer plant response rating (0 to 100 scale): 100
[4]; 31 g ai/ha
  Barnyardgrass plant response rating (0-100): 30
[4]; 125 g ai/ha
  Barnyardgrass plant response rating (0 to 100 scale): 100
Corn (Zea mays) [5]; 31 g ai/ha
  Corn plant response rating (0-100): 0
Corn (Zea mays) [5]; 125 g ai/ha
  Corn plant response rating (0 to 100 scale): 30
[6]; 31 g ai/ha
  Foxtail, Green plant response rating (0-100): 0
[6]; 125 g ai/ha
  Foxtail, Green plant response rating (0 to 100 scale): 30
Kochia (Bassia scoparia) [7]; 31 g ai/ha
  Kochia plant response rating (0-100): 0
Kochia (Bassia scoparia) [7]; 125 g ai/ha
  Kochia plant response rating (0 to 100 scale): 90
Soybean (Glycine max) [8]; 31 g ai/ha
  Soybean plant response rating (0-100): 10
Soybean (Glycine max) [8]; 125 g ai/ha
  Soybean plant response rating (0 to 100 scale): 70
[9]; 31 g ai/ha
  Wheat plant response rating (0-100): 80
[9]; 125 g ai/ha
  Wheat plant response rating (0 to 100 scale): 90
[10]; 31 g ai/ha
  Ragweed plant response rating (0-100): 0
[10]; 125 g ai/ha
  Ragweed plant response rating (0 to 100 scale): 0
[11]; 31 g ai/ha
  Ryegrass, Italian plant response rating (0-100): 50
[11]; 125 g ai/ha
  Ryegrass, Italian plant response rating (0 to 100 scale): 100
[12]
  Plant response rating, Ducksalad (0 to 100 scale, 0 is no effect and 100 is complete control): 95
Rice (Oryza sativa)
  Plant response rating, Rice (0 to 100 scale, 0 is no effect and 100 is complete control): 15
[13]
  Plant response rating, Sedge, Umbrella (0 to 100 scale, 0 is no effect and 100 is complete control): 95
[14]
  Plant response rating, Barnyardgrass (0 to 100 scale, 0 is no effect and 100 is complete control): 90
[15]; [28]
  Galium plant response rating (0-100): 80
[15]; [29]
  Galium plant response rating (0 to 100 scale): 80
[16]; [28]
  Oat, Wild plant response rating (0-100): 90
[16]; [29]
  Oat, Wild plant response rating (0 to 100 scale): 100
[17]; [28]
  Blackgrass plant response rating (0-100): 80
[17]; [29]
  Blackgrass plant response rating (0 to 100 scale): 90
[18]; [28]
  Amaranth, Palmer plant response rating (0-100): 90
[18]; [29]
  Amaranth, Palmer / Pigweed, Palmer plant response rating (0 to 100 scale): 100
[19]; [28]
  Horseweed plant response rating (0-100): 20
[19]; [29]
  Horseweed plant response rating (0 to 100 scale): 80
[20]; [28]
  Barnyardgrass plant response rating (0-100): 70
[20]; [29]
  Barnyardgrass plant response rating (0 to 100 scale): 100
Corn (Zea mays) [21]; [28]
  Corn plant response rating (0-100): 90
Corn (Zea mays) [21]; [29]
  Corn plant response rating (0 to 100 scale): 100
[22]; [28]
  Foxtail, Green plant response rating (0-100): 40
[22]; [29]
  Foxtail, Green plant response rating (0 to 100 scale): 60
Kochia (Bassia scoparia) [23]; [28]
  Kochia plant response rating (0-100): 70
Kochia (Bassia scoparia) [23]; [29]
  Kochia plant response rating (0 to 100 scale): 90
Soybean (Glycine max) [24]; [28]
  Soybean plant response rating (0-100): 60
Soybean (Glycine max) [24]; [29]
  Soybean plant response rating (0 to 100 scale): 60
[25]; [28]
  Wheat plant response rating (0-100): 90
[25]; [29]
  Wheat plant response rating (0 to 100 scale): 90
[26]; [28]
  Ragweed plant response rating (0-100): 50
[26]; [29]
  Ragweed plant response rating (0 to 100 scale): 60
[27]; [28]
  Ryegrass, Italian plant response rating (0-100): 70
[27]; [29]
  Ryegrass, Italian plant response rating (0 to 100 scale): 90
